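Results reflect a 48-hour exposure of cells in 96-well plates to compound at five concentrations. At the GI50, growth is halved.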 The source made the active and inactive calls. Rule as the data show it: active = GI50 up to about 1.1 µM and inactive = higher. A value given as a limit tells only on which side of the number the result lay.

This is an account of results in ChEMBL document CHEMBL1201862, “PubChem BioAssay data set” (2004).

Some test systems named below: SF-539; NCI-H226; HOP-62; NCI-H460; OVCAR-8; HCT-116; T47D; RPMI-8226; UO-31; ACHN; COLO 205; NCI-H522; Hs-578T; HOP-92; HL-60; OVCAR-4; A549; SR; SNB-75.
Common to all, as to assay: NCI tumour cell line growth inhibition, 48 h

For `Cc1ccc(S(=O)(=O)N/N=C2/CCCOC2)cc1`, the GI50 in the experiment on SF-539, in the experiment with NCI-H226, with HOP-62, with NCI-H460, in the experiment with OVCAR-8 and in the experiment on HCT-116 was > 100 µM (inactive) each time. Moreover, the GI50 in the experiment on T47D, with RPMI-8226, in the experiment with UO-31, in the experiment with ACHN, in the experiment with COLO 205 and in the experiment with NCI-H522 was > 100 µM (inactive) throughout. The GI50 in the experiment on Hs-578T, in the experiment on HOP-92, in the experiment with HL-60, in the experiment on OVCAR-4, with A549 and in the experiment with SR was > 100 µM (inactive) throughout.
As to `CN1C2=Nc3n(C)c4ccccc4[n+]3CN2c2ccccc21`, the GI50 with SF-539 was 69.5 µM (inactive); in the experiment on HOP-62, > 100 µM (inactive); in the experiment with NCI-H460, 24.2 µM (inactive); with OVCAR-8 it was 57.1 µM (inactive); in the experiment on HCT-116, 43.2 µM (inactive); in the experiment with T47D, 16.3 µM (inactive). Also, the GI50 was 41.1 µM (inactive) in the experiment on RPMI-8226; > 100 µM (inactive) with UO-31; > 100 µM (inactive) in the experiment with ACHN; 12.7 µM (inactive) in the experiment on COLO 205; 16.8 µM (inactive) in the experiment on NCI-H522; 27.5 µM (inactive) in the experiment on Hs-578T. In addition, the GI50 is 22.6 µM (inactive) in the experiment with HOP-92, > 100 µM (inactive) in the experiment with HL-60, 37.6 µM (inactive) in the experiment on A549 and 28.3 µM (inactive) in the experiment with SR.
With `Cc1cc(O)nc(/N=C(\N)Nc2ccc(Cl)cc2)n1`, the GI50 in the experiment with NCI-H226, in the experiment with HOP-62, in the experiment on NCI-H460, in the experiment with OVCAR-8, in the experiment with HCT-116 and with T47D was > 100 µM (inactive) throughout. Further, the GI50 in the experiment on RPMI-8226, with UO-31, with ACHN, with NCI-H522, with Hs-578T and in the experiment with HOP-92 was > 100 µM (inactive) each time. Moreover, the GI50 with HL-60, in the experiment on A549 and in the experiment with SR was > 100 µM (inactive) each time.
On to `CC(=O)OCCCOCn1c(Cc2ccccc2)c(C)c(=O)[nH]c1=O`, for which the GI50 in the experiment on SNB-75, in the experiment with SF-539, in the experiment on NCI-H226, in the experiment with HOP-62, in the experiment with NCI-H460 and in the experiment with OVCAR-8 was > 100 µM (inactive) in each case. Further, the GI50 in the experiment with HCT-116, in the experiment with T47D, in the experiment with RPMI-8226, with UO-31, in the experiment with ACHN and with COLO 205 was > 100 µM (inactive) each time. The GI50 with NCI-H522, in the experiment on Hs-578T, in the experiment on HOP-92, in the experiment with OVCAR-4, with A549 and in the experiment on SR was > 100 µM (inactive) each time.
Turning to `CC1=NN(c2nc(N)nc(/C(C#N)=C\c3ccc([N+](=O)[O-])s3)n2)C(C)(C)C1`, the GI50 with SNB-75 is 0.764 µM (active); with SF-539 it was 0.169 µM (active); in the experiment with NCI-H226, 2.39 µM (inactive); in the experiment on HOP-62, 0.316 µM (active); in the experiment on NCI-H460 it was 0.209 µM (active); in the experiment with OVCAR-8, 0.113 µM (active). In addition, the GI50 with HCT-116 is 0.244 µM (active); in the experiment with T47D, 0.0743 µM (active); in the experiment on RPMI-8226 it was 0.0218 µM (active); in the experiment with UO-31, 0.167 µM (active); with ACHN it was 0.261 µM (active); in the experiment on COLO 205, 0.339 µM (active). For the same compound, the GI50 was 0.101 µM (active) in the experiment with NCI-H522; 0.783 µM (active) in the experiment with Hs-578T; 0.302 µM (active) in the experiment on HOP-92; 2.55 µM (inactive) in the experiment with OVCAR-4; 0.887 µM (active) with A549; 0.018 µM (active) in the experiment with SR.
